# Data reported in patent US10758534B2 (Vertex Pharmaceuticals Incorporated, priority 2014, dated 2020).
# Molecular target: T1, F508del (Homo sapiens, UniProt P13569, DEL508-508)
# T1 construct: expressed in transfected cells
# Assay: Protocol 1: membrane potential optical assay (FLIPR III, voltage sensing dye), identification of potentiator compounds
# Type: cell-based
# Conditions: Table 3, compounds of Table 1
# Procedure, shortened: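 NIH3T3 F508del cells, 27° C × 24 hrs; compound/DMSO pretreat → redistribution dye load → single forskolin addition with Cl⁻ gradient (gluconate-substituted bath, HEPES pH 7.4). FLIPR III membrane-potential fluorescence read.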
# T1 sequence (P13569 with tags, fused parts or gaps DEL508-508): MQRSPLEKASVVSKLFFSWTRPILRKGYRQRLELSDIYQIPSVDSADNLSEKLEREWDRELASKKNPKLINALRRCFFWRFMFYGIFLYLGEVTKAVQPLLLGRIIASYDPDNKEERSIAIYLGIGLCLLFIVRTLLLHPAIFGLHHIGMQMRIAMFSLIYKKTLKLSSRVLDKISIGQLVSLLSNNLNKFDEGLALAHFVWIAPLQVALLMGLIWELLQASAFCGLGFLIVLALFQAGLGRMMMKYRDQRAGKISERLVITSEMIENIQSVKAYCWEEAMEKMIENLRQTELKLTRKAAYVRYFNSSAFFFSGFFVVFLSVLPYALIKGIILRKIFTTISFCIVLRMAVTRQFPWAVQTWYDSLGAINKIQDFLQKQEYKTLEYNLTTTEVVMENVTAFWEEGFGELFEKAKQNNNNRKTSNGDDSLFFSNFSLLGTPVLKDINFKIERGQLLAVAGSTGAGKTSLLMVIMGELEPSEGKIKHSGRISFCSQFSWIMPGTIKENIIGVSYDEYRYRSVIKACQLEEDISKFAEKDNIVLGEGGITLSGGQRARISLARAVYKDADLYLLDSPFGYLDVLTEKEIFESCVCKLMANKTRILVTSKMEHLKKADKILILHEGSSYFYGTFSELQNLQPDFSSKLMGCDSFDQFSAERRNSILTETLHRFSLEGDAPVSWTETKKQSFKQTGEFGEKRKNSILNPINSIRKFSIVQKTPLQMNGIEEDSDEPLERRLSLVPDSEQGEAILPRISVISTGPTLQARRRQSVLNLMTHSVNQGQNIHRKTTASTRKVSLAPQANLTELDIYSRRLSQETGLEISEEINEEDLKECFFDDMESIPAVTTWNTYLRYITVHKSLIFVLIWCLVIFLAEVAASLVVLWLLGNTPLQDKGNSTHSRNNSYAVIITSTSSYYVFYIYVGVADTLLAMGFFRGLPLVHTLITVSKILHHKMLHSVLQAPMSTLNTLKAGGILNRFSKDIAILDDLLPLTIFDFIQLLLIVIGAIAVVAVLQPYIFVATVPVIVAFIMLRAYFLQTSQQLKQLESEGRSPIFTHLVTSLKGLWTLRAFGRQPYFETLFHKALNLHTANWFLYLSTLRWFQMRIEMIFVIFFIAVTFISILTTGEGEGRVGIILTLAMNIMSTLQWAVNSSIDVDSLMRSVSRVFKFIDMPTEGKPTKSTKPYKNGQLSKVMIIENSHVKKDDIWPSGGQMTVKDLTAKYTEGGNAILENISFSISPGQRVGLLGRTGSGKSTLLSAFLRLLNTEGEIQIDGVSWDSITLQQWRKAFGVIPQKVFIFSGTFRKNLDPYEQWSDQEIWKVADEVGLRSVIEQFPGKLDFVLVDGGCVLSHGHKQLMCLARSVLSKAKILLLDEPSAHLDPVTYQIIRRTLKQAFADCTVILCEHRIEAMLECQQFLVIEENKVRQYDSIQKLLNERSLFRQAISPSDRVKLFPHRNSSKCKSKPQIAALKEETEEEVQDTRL
row,Structure (SMILES),EC30
1,"COc1cc(C)cc(Oc2cccc(S(=O)(=O)NC(=O)c3cccnc3N3CC(C)CC3(C)C)n2)c1 (centres unmarked) [Compound 1719, N—[[6-(3-methoxy-5-methyl-phenoxy)-2-pyridyl]sulfonyl]-2-(2,2,4-trimethylpyrrolidin-1-yl)pyridine-3-carboxamide]",+++ (“+++” means <3 uM)
2,"Cc1cc(C)c(Oc2nc(-c3ccc(OCC(C)C)cc3)ccc2C(=O)NS(=O)(=O)c2ccc[nH]c2=O)c(C)c1 [Compound 1079, 6-(4-isobutoxyphenyl)-N-[(2-oxo-1H-pyridin-3-yl)sulfonyl]-2-(2,4,6-trimethylphenoxy)pyridine-3-carboxamide]",+++ (“+++” means <3 uM)
3,"COc1cc(OC)cc(-c2ccc(C(=O)NS(=O)(=O)c3ccc[nH]c3=O)c(N3C[C@@H](C)CC3(C)C)n2)c1 [Compound 1878, 6-(3,5-dimethoxyphenyl)-N-[(2-oxo-1H-pyridin-3-yl)sulfonyl]-2-[(4S)-2,2,4-trimethylpyrrolidin-1-yl]pyridine-3-carboxamide]",++ (“++” means between 3 uM and 10 uM)
4,"COc1ccc(C)cc1-c1ccc(C(=O)NS(=O)(=O)c2cccc(N)n2)c(Oc2c(C)cc(C)cc2C)n1 [Compound 1320, N-[(6-amino-2-pyridyl)sulfonyl]-6-(2-methoxy-5-methyl-phenyl)-2-(2,4,6-trimethylphenoxy)pyridine-3-carboxamide]",+++ (“+++” means <3 uM)
5,"CC1CN(c2nc(C(C)(C)C)c(C3=CCC4(CC3)OCCO4)cc2C(=O)NS(=O)(=O)c2cccc(N)n2)C(C)(C)C1 (centres unmarked) [Compound 1459, N-[(6-amino-2-pyridyl)sulfonyl]-6-tert-butyl-5-(1,4-dioxaspiro[4.5]dec-8-en-8-yl)-2-(2,2,4-trimethylpyrrolidin-1-yl)pyridine-3-carboxamide]",+++ (“+++” means <3 uM)
6,"Cc1cc(C)cc(-c2ccc(C(=O)NS(=O)(=O)c3cccc(N)n3)c(N3C[C@@H](C)CC3(C)C)n2)c1 [Compound 1771, N-[(6-amino-2-pyridyl)sulfonyl]-6-(3,5-dimethylphenyl)-2-[(4S)-2,2,4-trimethylpyrrolidin-1-yl]pyridine-3-carboxamide]",+++ (“+++” means <3 uM)
7,"CC(C)Oc1cc(-c2ccc(C(=O)NS(=O)(=O)c3cccc(N)n3)c(N3C[C@@H](C)CC3(C)C)n2)cc(C(F)(F)F)c1 [Compound 1674, N-[(6-amino-2-pyridyl)sulfonyl]-6-[3-isopropoxy-5-(trifluoromethyl)phenyl]-2-[(4S)-2,2,4-trimethylpyrrolidin-1-yl]pyridine-3-carboxamide]",+++ (“+++” means <3 uM)
8,"CC1CN(c2nc(-c3ccc(OCC(C)(C)C)nc3)ccc2C(=O)NS(=O)(=O)c2cccc(N)n2)C(C)(C)C1 (centres unmarked) [Compound 1181, N-[(6-amino-2-pyridyl)sulfonyl]-6-[6-(2,2-dimethylpropoxy)-3-pyridyl]-2-(2,2,4-trimethylpyrrolidin-1-yl)pyridine-3-carboxamide]",+++ (“+++” means <3 uM)
9,"CCOc1cc(-c2ccc(C(=O)NS(=O)(=O)c3cccc(N)n3)c(N3C[C@@H](C)CC3(C)C)n2)cc(C)c1C [Compound 1931, N-[(6-amino-2-pyridyl)sulfonyl]-6-(3-ethoxy-4,5-dimethyl-phenyl)-2-[(4S)-2,2,4-trimethylpyrrolidin-1-yl]pyridine-3-carboxamide]",+++ (“+++” means <3 uM)
10,"C#Cc1cccc(Oc2cccc(S(=O)(=O)NC(=O)c3cccnc3N3CC(C)CC3(C)C)n2)c1 (centres unmarked) [Compound 1782, N—[[6-(3-ethynylphenoxy)-2-pyridyl]sulfonyl]-2-(2,2,4-trimethylpyrrolidin-1-yl)pyridine-3-carboxamide]",+++ (“+++” means <3 uM)
11,"CCOc1ncc(-c2ccc(C(=O)NS(=O)(=O)c3cccc(N)n3)c(Oc3c(C)cc(C)cc3C)n2)cn1 [Compound 1130, N-[(6-amino-2-pyridyl)sulfonyl]-6-(2-ethoxypyrimidin-5-yl)-2-(2,4,6-trimethylphenoxy)pyridine-3-carboxamide]",++ (“++” means between 3 uM and 10 uM)
12,"Cc1cc(C)c(Oc2nc(-c3cccc(CN)c3)ccc2C(=O)NS(=O)(=O)c2cccc(N)n2)c(C)c1 [Compound 801, 6-[3-(aminomethyl)phenyl]-N-[(6-amino-2-pyridyl)sulfonyl]-2-(2,4,6-trimethylphenoxy)pyridine-3-carboxamide]",+ (“+” means greater than 10 uM)
13,"COCC1CCCN(c2nc(-c3ccc(OC(C)C)nc3)ccc2C(=O)NS(=O)(=O)c2cccc(N)n2)C1 (centres unmarked) [Compound 1116, N-[(6-amino-2-pyridyl)sulfonyl]-6-(6-isopropoxy-3-pyridyl)-2-[3-(methoxymethyl)-1-piperidyl]pyridine-3-carboxamide]",++ (“++” means between 3 uM and 10 uM)
14,"CCCc1ccc(S(=O)(=O)NC(=O)C2(C)c3cccc(OCC)c3CN2Cc2c(C)cc(C)cc2C)cc1N (centres unmarked) [Compound 1367, N-(3-amino-4-propyl-phenyl)sulfonyl-4-ethoxy-1-methyl-2-[(2,4,6-trimethylphenyl)methyl]isoindoline-1-carboxamide]",+++ (“+++” means <3 uM)
15,"CC1CCCC(Oc2cccc(S(=O)(=O)NC(=O)c3cccnc3N3CC(C)CC3(C)C)n2)C1 (centres unmarked) [Compound 1988, N—[[6-(3-methylcyclohexoxy)-2-pyridyl]sulfonyl]-2-(2,2,4-trimethylpyrrolidin-1-yl)pyridine-3-carboxamide]",+++ (“+++” means <3 uM)
16,"CC1CN(c2ncccc2C(=O)NS(=O)(=O)c2cccc(Oc3ccc(F)cc3)n2)C(C)(C)C1 (centres unmarked) [Compound 1813, N—[[6-(4-fluorophenoxy)-2-pyridyl]sulfonyl]-2-(2,2,4-trimethylpyrrolidin-1-yl)pyridine-3-carboxamide]",+++ (“+++” means <3 uM)
17,"CC(C)COc1cc(F)cc(-c2ccc(C(=O)NS(=O)(=O)N3CCCC(NS(C)(=O)=O)C3)c(N3CC(C)CC3(C)C)n2)c1 (centres unmarked) [Compound 1600, 6-(3-fluoro-5-isobutoxy-phenyl)-N—[[3-(methanesulfonamido)-1-piperidyl]sulfonyl]-2-(2,2,4-trimethylpyrrolidin-1-yl)pyridine-3-carboxamide]",+++ (“+++” means <3 uM)
18,"CCOc1cccc2c1CN(Cc1c(C)cccc1C)C2(C)C(=O)NS(=O)(=O)c1cccc(F)n1 (centres unmarked) [Compound 1676, 2-[(2,6-dimethylphenyl)methyl]-4-ethoxy-N-[(6-fluoro-2-pyridyl)sulfonyl]-1-methyl-isoindoline-1-carboxamide]",+++ (“+++” means <3 uM)
19,"Cc1cc(C)c(CN2CCc3ccccc3CC2C(=O)NS(=O)(=O)c2cccc(NCCO)n2)c(C)c1 (centres unmarked) [Compound 838, N-[[6-(2-hydroxyethylamino)-2-pyridyl]sulfonyl]-3-[(2,4,6-trimethylphenyl)methyl]-1,2,4,5-tetrahydro-3-benzazepine-4-carboxamide]",++ (“++” means between 3 uM and 10 uM)
20,"COc1ccc(-c2ccc(C(=O)NS(=O)(=O)c3cccc(N)n3)c(Oc3c(C)cc(C)cc3C)n2)cc1OC [Compound 1146, N-[(6-amino-2-pyridyl)sulfonyl]-6-(3,4-dimethoxyphenyl)-2-(2,4,6-trimethylphenoxy)pyridine-3-carboxamide]",++ (“++” means between 3 uM and 10 uM)
21,"Cc1ccc(-c2nc(C(C)(C)C)ccc2C(=O)NS(=O)(=O)c2ccc(O)cc2)cc1 [Compound 809, 6-tert-butyl-N-(4-hydroxyphenyl)sulfonyl-2-(p-tolyl)pyridine-3-carboxamide]",++ (“++” means between 3 uM and 10 uM)
22,"CC(C)CCOc1cccc(-c2ccc(C(=O)NS(=O)(=O)c3cccc(N)n3)c(N3CC(C)CC3(C)C)n2)n1 (centres unmarked) [Compound 1135, N-[(6-amino-2-pyridyl)sulfonyl]-6-(6-isopentyloxy-2-pyridyl)-2-(2,2,4-trimethylpyrrolidin-1-yl)pyridine-3-carboxamide]",+++ (“+++” means <3 uM)
23,"CC(C)COc1cc(F)cc(-c2ccc(C(=O)NS(=O)(=O)c3cccc(N)n3)c(OCCC3CCCC3)n2)c1 [Compound 1440, N-[(6-amino-2-pyridyl)sulfonyl]-2-(2-cyclopentylethoxy)-6-(3-fluoro-5-isobutoxy-phenyl)pyridine-3-carboxamide]",+++ (“+++” means <3 uM)
24,"CC(C)COc1cnn(-c2ccc(C(=O)NS(=O)(=O)c3cccc(N)n3)c(N3C[C@@H](C)CC3(C)C)n2)c1 [Compound 1443, N-[(6-amino-2-pyridyl)sulfonyl]-6-(4-isobutoxypyrazol-1-yl)-2-[(4S)-2,2,4-trimethylpyrrolidin-1-yl]pyridine-3-carboxamide]",+++ (“+++” means <3 uM)
25,"CCOc1cccc2c1CN(Cc1c(C)cc(C)cc1C)C2(C)C(=O)NS(=O)(=O)c1cccc(N)n1 (centres unmarked) [Compound 1346, N-[(6-amino-2-pyridyl)sulfonyl]-4-ethoxy-1-methyl-2-[(2,4,6-trimethylphenyl)methyl]isoindoline-1-carboxamide]",+++ (“+++” means <3 uM)
26,"CCCOc1ccc(-c2ccc(C(=O)NS(=O)(=O)c3cccc(N)n3)c(Oc3c(C)cc(C)cc3C)n2)cc1 [Compound 996, N-[(6-amino-2-pyridyl)sulfonyl]-6-(4-propoxyphenyl)-2-(2,4,6-trimethylphenoxy)pyridine-3-carboxamide]",+++ (“+++” means <3 uM)
27,"COc1cncc(-c2ccc(C(=O)NS(=O)(=O)c3cccc(N)n3)c(Oc3c(C)cc(C)cc3C)n2)c1 [Compound 1115, N-[(6-amino-2-pyridyl)sulfonyl]-6-(5-methoxy-3-pyridyl)-2-(2,4,6-trimethylphenoxy)pyridine-3-carboxamide]",+ (“+” means greater than 10 uM)
28,"CC(Nc1ncccc1C(=O)NS(=O)(=O)c1cccc(N)n1)c1cccc2ccccc12 (centres unmarked) [Compound 1769, N-[(6-amino-2-pyridyl)sulfonyl]-2-[1-(1-naphthyl)ethylamino]pyridine-3-carboxamide]",++ (“++” means between 3 uM and 10 uM)
29,"Cc1cc(C)c(Oc2nc(-c3ccc(C)cc3F)ccc2C(=O)NS(=O)(=O)c2cccc(N)n2)c(C)c1 [Compound 875, N-[(6-amino-2-pyridyl)sulfonyl]-6-(2-fluoro-4-methyl-phenyl)-2-(2,4,6-trimethylphenoxy)pyridine-3-carboxamide]",+++ (“+++” means <3 uM)
